Columns and labels:
Melanocortin receptor 4 [1] = biological target: T1, Melanocortin receptor 4 (Homo sapiens, UniProt P32245); test: Agonist activity at human MC4 receptor expressed in CHO cells assessed as increase of alpha-MSH-induced cAMP accumulation at 10 uM relative to alpha-MSH; type: functional, cell-based
[2] = Oral bioavailability in Sprague-Dawley rat at 4 mg/kg; type: ADME, organism-based; settings: in vivo
Melanocortin receptor 4 [3] = biological target: T1, Melanocortin receptor 4; test: Displacement of [125I]NDP-alpha-MSH from human MC4 receptor expressed in CHO cells; type: cell-based
Melanocortin receptor 4 [4] = biological target: T1, Melanocortin receptor 4; test: Agonist activity at human MC4 receptor expressed in CHO cells assessed as increase of alpha-MSH-induced cAMP accumulation; type: functional, cell-based
[5] = Volume of distribution at steady state in Sprague-Dawley rat at 1 mg/kg, iv and 4 mg/kg, po; type: ADME, organism-based; settings: in vivo, read-out: Vdss
[6] = Clearance in Sprague-Dawley rat at 1 mg/kg, iv and 4 mg/kg, po; type: ADME, organism-based; settings: in vivo
[7] = Half life in Sprague-Dawley rat at 1 mg/kg, iv and 4 mg/kg, po; type: ADME, organism-based; settings: in vivo
[8] = biological target: T2, Melanocyte-stimulating hormone receptor (Homo sapiens, UniProt Q01726); test: Agonist activity at human MC1 receptor expressed in CHO cells assessed as increase of alpha-MSH-induced cAMP accumulation; type: functional, cell-based
Target sequence in this assay (Q01726 whole entry): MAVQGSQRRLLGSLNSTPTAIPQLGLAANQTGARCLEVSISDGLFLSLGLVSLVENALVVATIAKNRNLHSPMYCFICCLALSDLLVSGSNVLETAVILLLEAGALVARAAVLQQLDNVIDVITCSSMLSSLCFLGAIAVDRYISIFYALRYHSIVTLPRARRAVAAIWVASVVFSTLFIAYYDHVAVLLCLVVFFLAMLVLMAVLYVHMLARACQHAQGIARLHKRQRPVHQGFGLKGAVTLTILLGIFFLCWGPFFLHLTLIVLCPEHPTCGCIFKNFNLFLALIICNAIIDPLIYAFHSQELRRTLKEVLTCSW

Melanocortin receptor 5 [9] = biological target: T3, Melanocortin receptor 5 (Homo sapiens, UniProt P33032); test: Agonist activity at human MC5 receptor expressed in CHO cells assessed as increase of alpha-MSH-induced cAMP accumulation; type: functional, cell-based
Melanocortin receptor 3 [10] = biological target: T4, Melanocortin receptor 3 (Homo sapiens, UniProt P41968); test: Agonist activity at human MC3 receptor expressed in CHO cells assessed as increase of alpha-MSH-induced cAMP accumulation; type: functional, cell-based
[11] = biological target: T2, Melanocyte-stimulating hormone receptor; test: Displacement of [125I]NDP-alpha-MSH from human MC1 receptor expressed in CHO cells; type: cell-based
Target sequence in this assay (Q01726 whole entry): as above

Melanocortin receptor 5 [12] = biological target: T3, Melanocortin receptor 5; test: Displacement of [125I]NDP-alpha-MSH from human MC5 receptor expressed in CHO cells; type: cell-based
Melanocortin receptor 3 [13] = biological target: T4, Melanocortin receptor 3; test: Displacement of [125I]NDP-alpha-MSH from human MC3 receptor expressed in CHO cells; type: cell-based
Homo sapiens [14] = species: Homo sapiens; test: Selectivity ratio of IC50 for human MC1 receptor to IC50 for human MC4 receptor
Homo sapiens [15] = species: Homo sapiens; test: Selectivity ratio of EC50 for human MC5 receptor to EC50 for human MC4 receptor
Melanocortin receptor 5 [16] = biological target: T3, Melanocortin receptor 5; test: Agonist activity at human MC5 receptor expressed in CHO cells assessed as increase of alpha-MSH-induced cAMP accumulation at 10 uM relative to alpha-MSH; type: functional, cell-based
Homo sapiens [17] = species: Homo sapiens; test: Selectivity ratio of IC50 for human MC5 receptor to IC50 for human MC4 receptor
[18] = biological target: T2, Melanocyte-stimulating hormone receptor; test: Agonist activity at human MC1 receptor expressed in CHO cells assessed as increase of alpha-MSH-induced cAMP accumulation at 10 uM relative to alpha-MSH; type: functional, cell-based
Target sequence in this assay (Q01726 whole entry, looked up): as the sequence (Q01726 whole entry) above

Homo sapiens [19] = species: Homo sapiens; test: Selectivity ratio of EC50 for human MC1 receptor to EC50 for human MC4 receptor
Melanocortin receptor 3 [20] = biological target: T4, Melanocortin receptor 3; test: Agonist activity at human MC3 receptor expressed in CHO cells assessed as increase of alpha-MSH-induced cAMP accumulation at 10 uM relative to alpha-MSH; type: functional, cell-based

T4 sequence (P41968 whole entry): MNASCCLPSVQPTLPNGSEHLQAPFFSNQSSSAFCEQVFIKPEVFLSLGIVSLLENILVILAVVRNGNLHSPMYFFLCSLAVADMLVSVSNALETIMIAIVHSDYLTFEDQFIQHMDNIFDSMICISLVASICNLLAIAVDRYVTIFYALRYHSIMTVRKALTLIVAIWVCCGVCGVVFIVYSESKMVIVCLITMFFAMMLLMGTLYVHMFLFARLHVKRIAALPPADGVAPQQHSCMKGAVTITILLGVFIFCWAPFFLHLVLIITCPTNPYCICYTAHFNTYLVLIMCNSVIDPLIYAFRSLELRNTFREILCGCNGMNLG
T3 sequence (P33032 whole entry): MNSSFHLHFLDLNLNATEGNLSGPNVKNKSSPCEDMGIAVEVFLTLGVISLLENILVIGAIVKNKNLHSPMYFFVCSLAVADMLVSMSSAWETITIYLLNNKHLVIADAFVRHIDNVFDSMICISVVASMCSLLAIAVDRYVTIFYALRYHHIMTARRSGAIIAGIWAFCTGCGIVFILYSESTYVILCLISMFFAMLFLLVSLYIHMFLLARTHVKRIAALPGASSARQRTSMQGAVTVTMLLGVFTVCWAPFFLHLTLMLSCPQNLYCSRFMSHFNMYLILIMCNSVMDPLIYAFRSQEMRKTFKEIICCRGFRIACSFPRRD
T1 sequence (P32245 whole entry): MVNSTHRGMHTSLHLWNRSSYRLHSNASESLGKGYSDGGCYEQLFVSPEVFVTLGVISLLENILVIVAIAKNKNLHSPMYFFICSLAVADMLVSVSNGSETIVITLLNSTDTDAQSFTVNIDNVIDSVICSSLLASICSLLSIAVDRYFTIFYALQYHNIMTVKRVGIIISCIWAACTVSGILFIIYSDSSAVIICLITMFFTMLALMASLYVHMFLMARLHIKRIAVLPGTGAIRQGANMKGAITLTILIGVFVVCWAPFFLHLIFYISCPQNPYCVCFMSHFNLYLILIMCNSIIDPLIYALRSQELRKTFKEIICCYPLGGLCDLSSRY

Row | Compound | Activity (Melanocortin receptor 4 [1]) [%] | bioavailability [2] [%] | IC50 (Melanocortin receptor 4 [3]) [µM] | EC50 (Melanocortin receptor 4 [4]) [µM] | Vd [5] [L/kg] | clearance [6] [mL/min/kg] | half-life [7] [h] | EC50 [8] [µM] | EC50 (Melanocortin receptor 5 [9]) [µM] | EC50 (Melanocortin receptor 3 [10]) [µM] | IC50 [11] [µM] | IC50 (Melanocortin receptor 5 [12]) [µM] | IC50 (Melanocortin receptor 3 [13]) [µM] | Ratio IC50 (Homo sapiens [14]) | Ratio EC50 (Homo sapiens [15]) | Activity (Melanocortin receptor 5 [16]) [%] | Ratio IC50 (Homo sapiens [17]) | Activity [18] [%] | Ratio EC50 (Homo sapiens [19]) | Activity (Melanocortin receptor 3 [20]) [%]
1 | CCN(CC)CC(C1CCCCC1)N1CCN(C(=O)[C@@H]2CN(C(C)(C)C)C[C@H]2c2ccc(F)cc2F)CC1 (stereo partly drawn) | 101 | 22 | 0.26 | 0.57 | 19 | 7.3 | 34 | – | – | – | – | – | – | – | – | – | – | – | – | –
2 | CC(C)N(CC(C1CCCCC1)N1CCN(C(=O)[C@@H]2CN(C(C)(C)C)C[C@H]2c2ccc(F)cc2F)CC1)C(=O)c1ncccn1 (single isomer, unassigned; diastereomer 1) | – | 26 | 0.035 | 0.01 | 3.8 | 31 | 1.8 | – | – | – | – | – | – | – | – | – | – | – | – | –
3 | CC(C)N(CC(C1CCCCC1)N1CCN(C(=O)[C@@H]2CN(C(C)(C)C)C[C@H]2c2ccc(F)cc2F)CC1)S(C)(=O)=O (single isomer, unassigned; diastereomer 2) [listing 1 of 2 here] | – | 21 | 0.013 | 0.013 | 6 | 25 | 2.7 | 0.54 | > 5 | 1.8 | 1 | 0.25 | 3.6 | – | – | – | – | – | – | –
4 | CC(C)N(CC(C1CCCCC1)N1CCN(C(=O)[C@@H]2CN(C(C)(C)C)C[C@H]2c2ccc(F)cc2F)CC1)S(C)(=O)=O (single isomer, unassigned; diastereomer 2) [listing 2 of 2 here] | 117 | – | – | – | – | – | – | – | – | – | – | – | – | 20 | 20 | 57 | 20 | 63 | 20 | 94
5 | CC(=O)N(CC(C1CCCCC1)N1CCN(C(=O)[C@@H]2CN(C(C)(C)C)C[C@H]2c2ccc(F)cc2F)CC1)C(C)C (stereo in doubt; 19B) [listing 1 of 2 here] | – | 12 | 0.028 | 0.025 | 6.8 | 42 | 2.2 | 0.89 | 2.8 | 2 | 1.8 | 0.66 | 6.5 | – | – | – | – | – | – | –
6 | CC(=O)N(CC(C1CCCCC1)N1CCN(C(=O)[C@@H]2CN(C(C)(C)C)C[C@H]2c2ccc(F)cc2F)CC1)C(C)C (stereo in doubt; 19B) [listing 2 of 2 here] | 123 | – | – | – | – | – | – | – | – | – | – | – | – | 20 | 20 | 64 | 20 | 61 | 20 | 81

Reference: ChEMBL document CHEMBL1208738, “Optimization of privileged structures for selective and potent melanocortin subtype-4 receptor ligands” (Bioorg Med Chem Lett, 2010)
